The values below come from the Kinase Knowledgebase extract (Sharma et al. 2016).

For assay [1], the target named is CDK2 (UniProt P24941). The assay can be described thus: Enzyme Assay.
For assay [2], the target named is EGFR (UniProt P00533). The note with it: concentration not given here.

SMILES strings stand for the structures.

Sequence of EGFR (P00533 whole entry, looked up): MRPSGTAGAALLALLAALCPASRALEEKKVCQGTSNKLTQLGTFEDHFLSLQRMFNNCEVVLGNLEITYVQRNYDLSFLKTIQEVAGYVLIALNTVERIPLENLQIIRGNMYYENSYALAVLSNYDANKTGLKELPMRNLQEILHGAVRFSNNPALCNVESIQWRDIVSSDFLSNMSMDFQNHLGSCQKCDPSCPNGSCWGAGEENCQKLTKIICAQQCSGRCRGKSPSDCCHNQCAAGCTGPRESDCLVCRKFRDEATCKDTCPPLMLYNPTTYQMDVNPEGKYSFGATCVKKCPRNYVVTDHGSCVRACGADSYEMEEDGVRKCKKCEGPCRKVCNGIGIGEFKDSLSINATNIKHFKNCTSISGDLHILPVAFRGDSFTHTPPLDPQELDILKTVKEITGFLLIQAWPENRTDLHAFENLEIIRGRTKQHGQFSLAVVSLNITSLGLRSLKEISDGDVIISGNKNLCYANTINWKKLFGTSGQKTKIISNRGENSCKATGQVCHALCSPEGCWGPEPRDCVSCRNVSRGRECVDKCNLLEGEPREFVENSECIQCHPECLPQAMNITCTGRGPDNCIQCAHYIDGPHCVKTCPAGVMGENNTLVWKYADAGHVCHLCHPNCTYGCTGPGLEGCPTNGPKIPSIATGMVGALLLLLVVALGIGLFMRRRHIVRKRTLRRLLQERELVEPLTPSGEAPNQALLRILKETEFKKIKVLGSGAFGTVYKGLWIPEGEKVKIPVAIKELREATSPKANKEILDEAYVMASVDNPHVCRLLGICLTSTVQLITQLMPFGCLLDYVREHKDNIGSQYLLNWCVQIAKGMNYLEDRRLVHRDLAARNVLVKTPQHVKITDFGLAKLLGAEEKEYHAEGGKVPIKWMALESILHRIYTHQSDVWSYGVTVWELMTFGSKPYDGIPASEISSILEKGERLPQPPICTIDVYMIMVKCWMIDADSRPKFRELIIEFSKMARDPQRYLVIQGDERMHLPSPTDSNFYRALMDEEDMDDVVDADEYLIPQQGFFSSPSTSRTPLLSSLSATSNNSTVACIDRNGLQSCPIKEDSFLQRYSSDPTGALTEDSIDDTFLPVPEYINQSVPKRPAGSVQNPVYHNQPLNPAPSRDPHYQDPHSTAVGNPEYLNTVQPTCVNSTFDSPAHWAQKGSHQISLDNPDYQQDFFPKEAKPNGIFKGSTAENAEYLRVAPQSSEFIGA

Broadly, the IC50 is the concentration that gives 50% inhibition. Low values mean greater potency, high ones weaker potency. As a reminder, the inhibition is the relative decrease from the control value, in per cent. Read a high inhibition as strong suppression. As for `COc1ccccc1-c1cc(Nc2ccc(NC(=O)[C@@H](N)c3ccccc3)cc2)ncn1`, the half-maximal inhibitory concentration (IC50) in assay [1] fell in the range of 1000 to 10000 nM. In addition, in assay [2], the inhibition fell in the range of 50 to 80%.
On the same counts, the results for `COc1ccccc1-c1cc(Nc2ccc(C(=O)N[C@@H]3CCCC[C@H]3N)cc2)ncn1.COc1ccccc1-c1cc(Nc2ccc(C(=O)N[C@H]3CCCC[C@@H]3N)cc2)ncn1` are 1000 to 10000 nM and 50 to 80%.
Taken in the same sequence, the figures for `COc1ccccc1-c1cc(Nc2ccc(N3CCCC3=O)cc2)ncn1` were 1 to 1000 nM and 50 to 80%.
